Measured values published in patent EP0908457B1, “3-(1,2-benzisothiazol- and isoxazol-5-Y1)-2,4(1H,3H)-pyrimidinedione or thione and 3-(1,2-benzisothiazol- and isoxazol-5-y1)-4(3H)-pyrimidinone or thione herbicidal agents” (BASF AKTIENGESELLSCHAFT, priority 1997, dated 1999).

Legend:
Type in all cases: in vivo
[1] = tested on: Monochoria vaginalis, Presl.; experiment: Preemergence weed control under flooded paddy conditions, MOOVA (Monochoria); conditions: preemergence, flooded paddy, rated three to four weeks after treatment
[2] = tested on: Echinochloa oryzoides (Ard.) Fritsch.; experiment: Preemergence weed control under flooded paddy conditions, ECHORC (Watergrass (Calif.)); conditions: preemergence, flooded paddy, rated three to four weeks after treatment
[3] = tested on: Cyperus serotinus, Rottb.; experiment: Preemergence weed control under flooded paddy conditions, CYPSE (Flatsedge); conditions: preemergence, rated three to four weeks after treatment
Cyperus iria = experiment: Preemergence weed control under flooded paddy conditions, CYPIR (Rice Flatsedge); conditions: preemergence, flooded paddy, rated three to four weeks after treatment
Sagittaria pygmaea, L. = experiment: Preemergence weed control under flooded paddy conditions, SAGPY (Arrowhead (Pygmaea)); conditions: preemergence, flooded paddy, rated three to four weeks after treatment
Also: meaning of each grade not given here.

SMILES	herbicidal effect rating, MOOVA ([1]; Rate 0.0320 kg/ha)	herbicidal effect rating, MOOVA ([1]; Rate 0.0620 kg/ha)	herbicidal effect rating, MOOVA ([1]; Rate 0.1250 kg/ha)	herbicidal effect rating, MOOVA ([1]; Rate 0.2500 kg/ha)	herbicidal effect rating, ECHORC ([2]; Rate 0.0320 kg/ha)	herbicidal effect rating, ECHORC ([2]; Rate 0.0620 kg/ha)	herbicidal effect rating, ECHORC ([2]; Rate 0.1250 kg/ha)	herbicidal effect rating, ECHORC ([2]; Rate 0.2500 kg/ha)	herbicidal effect rating, CYPSE ([3]; Rate 0.0320 kg/ha)	herbicidal effect rating, CYPSE ([3]; Rate 0.0620 kg/ha)	herbicidal effect rating, CYPSE ([3]; Rate 0.1250 kg/ha)	herbicidal effect rating, CYPSE ([3]; Rate 0.2500 kg/ha)	herbicidal effect rating, CYPIR (Cyperus iria; Rate 0.0320 kg/ha)	herbicidal effect rating, CYPIR (Cyperus iria; Rate 0.0620 kg/ha)	herbicidal effect rating, CYPIR (Cyperus iria; Rate 0.1250 kg/ha)	herbicidal effect rating, CYPIR (Cyperus iria; Rate 0.2500 kg/ha)	herbicidal effect rating, SAGPY (Sagittaria pygmaea, L.; Rate 0.0620 kg/ha)	herbicidal effect rating, SAGPY (Sagittaria pygmaea, L.; Rate 0.1250 kg/ha)	herbicidal effect rating, SAGPY (Sagittaria pygmaea, L.; Rate 0.2500 kg/ha)	herbicidal effect rating, SAGPY (Sagittaria pygmaea, L.; Rate 0.0320 kg/ha)
Cn1c(C(F)(F)F)cc(=O)n(-c2ccc3snc(C[S+]([O-])c4ccccc4)c3c2)c1=O (stereo not shown) [Example 394, 2,4(1H,3H)-Pyrimidinedione, 1-methyl-3-{3-[(phenylsulfinyl)methyl]-1,2-benzisothiazol-5-yl}-6-(trifluoromethyl)-]	8.0	8.0	9.0	9.0	0.0	0.0	4.0	6.0	0.0	0.0	0.0	2.0	0.0	3.0	5.0	7.0	0.0	0.0	0.0	–
CCC(C)S(=O)(=O)NC(=O)c1nsc2ccc(-n3c(=O)cc(C(F)(F)F)n(C)c3=O)cc12 (stereo not shown) [Example 395, 1,2-Benzisothiazole-3-carboxamide, 5-[3,6-dihydro-3-methyl-2,6-dioxo-4-(trifluoromethyl)-1(2H)-pyrimidinyl]-N-[(1-methylpropyl)sulfonyl]-]	9.0	9.0	9.0	9.0	0.0	0.0	2.0	3.0	0.0	0.0	0.0	0.0	0.0	0.0	0.0	3.0	2.0	4.0	5.0	0.0
Cn1c(C(F)(F)F)cc(=O)n(-c2ccc3snc(C(C)(C)C(=O)OCc4ccccc4)c3c2)c1=O [Example 396, 1,2-Benzisothiazole-3-acetic acid, 5-[3,6-dihydro-3-methyl-2,6-dioxo-4-(trifluoromethyl)-1(2H)-pyrimidinyl]-alpha,alpha-dimethyl-, benzyl ester]	9.0	9.0	9.0	9.0	9.0	9.0	9.0	9.0	0.0	0.0	0.0	6.0	7.0	8.0	9.0	9.0	7.0	8.0	8.0	7.0
COc1ccc(COC(=O)C(C)(C)c2nsc3ccc(-n4c(=O)cc(C(F)(F)F)n(C)c4=O)cc23)cc1 [Example 397, 1,2-Benzisothiazole-3-acetic acid, 5-[3,6-dihydro-3-methyl-2,6-dioxo-4-(trifluoromethyl)-1(2H)-pyrimidinyl]-alpha,alpha-dimethyl-, p-methoxybenzyl ester]	9.0	9.0	9.0	9.0	9.0	9.0	9.0	9.0	0.0	–	0.0	0.0	6.0	7.0	9.0	9.0	5.0	5.0	5.0	4.0
CN(O)C(=O)c1nsc2ccc(-n3c(=O)cc(C(F)(F)F)n(C)c3=O)cc12 [Example 398, 1,2-Benzisothiazole-3-carbohydroxamic acid, 5-[3,6-dihydro-3-methyl-2,6-dioxo-4-(trifluoromethyl)-1(2H)-pyrimidinyl]-N-methyl-]	6.0	9.0	9.0	9.0	0.0	2.0	3.0	8.0	0.0	0.0	3.0	3.0	0.0	3.0	6.0	8.0	0.0	0.0	3.0	0.0
C=CCONC(=O)c1nsc2ccc(-n3c(=O)cc(C(F)(F)F)n(C)c3=O)cc12 [Example 399, 1,2-Benzisothiazole-3-carboxamide, N-(allyloxy)-5-[3,6-dihydro-3-methyl-2,6-dioxo-4-(trifluoromethyl)-1(2H)-pyrimidinyl]-]	6.0	7.0	8.0	9.0	0.0	0.0	2.0	3.0	0.0	0.0	0.0	0.0	0.0	2.0	7.0	8.0	0.0	0.0	0.0	0.0
